Test results as given in patent US20260041744A1, “Methods for Treating Pompe Disease” (Amicus Therapeutics, Inc., priority 2022, published 2026).

How the values were obtained:
[1] = test system: LOPD population (PROPEL target population); assay: Multi-level network meta-regression (ML-NMR) indirect treatment comparison, 6MWD and FVC change from baseline at week 52; design: species or system human; conditions: base-case scenario
Protocol: Using patient-level data from the PROPEL randomized clinical trial (RCT) plus aggregate published data from other RCTs, Phase I/II and open label extension trials, a multi-level network meta-regression was conducted, adjusting for various baseline covariates including previous ERT duration. The base case scenario had covariates resembling the PROPEL population (naïve and ERT-experienced) and analyzed 6MWD and FVC change from baseline at 52 weeks.
An ITC providing relative effect estimates in the target population of interest (ie an LOPD population including a mix of ERT-naïve and ERT-experienced subjects as in the pivotal Phase III trial comparing Cipa+mig with Alglu [PROPEL]) was performed.
A systematic literature review (SLR) was conducted to identify relevant published clinical studies of ERTs in LOPD. Outcomes assessed were change from baseline in 6-minute walking distance (6MWD) (m) and in forced vital capacity (FVC; % predicted) at week 52, acknowledged by clinicians, HTA agencies and payers as key LOPD trial endpoints. Aggregate results on 6MWD and FVC change from baseline over time and baseline characteristics (age, gender, ethnicity, previous ERT duration, baseline 6MWD and baseline FVC) were extracted from included studies.
A multi-level network meta regression (ML-NMR) was performed, which is an extension of standard network meta-analyses (NMAs) that take into account the effect of study-level covariates, and that can be applied to any connected network with any mixture of individual patient-level data (IPD) and aggregate data. ML-NMR is an accepted method by the National Institute for Health and Care Excellence (NICE) in support of cost effectiveness analysis. Single-arm study results were matched to appropriate comparator arms of the comparative studies to allow for inclusion into the network. Mean treatment differences with associated 95% credible intervals (CrIs) were calculated for 6MWD and FVC change from baseline at week 52.
A base-case scenario was evaluated in which all covariates were set to the target population of the PROPEL trial. To study the impact of previous ERT duration on relative effects, ERT duration value was varied, keeping remaining covariate values as in the base-case scenario. A sensitivity analysis was performed by excluding all matched single-arm evidence from the network to assess its impact on the results.
Both fixed effects (FE) and random effects (RE) ML-NMR models were applied and the deviance information criteria (DIC) was used to assess goodness-of-fit of the models and to identify the appropriate model (FE or RE model) for the data. Models were implemented in a Bayesian framework using Stan with help of the R package multinma.
In the base-case scenario, the covariates were set to the baseline characteristics of the target population (ie the PROPEL trial; see Table 20), and time was set to 52 weeks.

[2] = test system: adult subjects with late-onset Pompe disease (LOPD); assay: Study ATB200-03 (PROPEL): PROMIS-Physical Function; type: in vivo, human; conditions: for CHG to Week 52 in PROMIS-Physical Function total score, LS Mean: MMRM, actual time point of assessments; for PROMIS-Physical Function Short Form 20a total score CHG, LS means (SE): Week 52, ANCOVA
Protocol: The test for the primary endpoint was conducted first at the 1-sided 0.025 significance level, and if significant, the ordered key secondary endpoints were similarly tested at the same significance level. The statistical significance of the key secondary endpoints was interpreted following a hierarchical testing order, each at the 1-sided alpha level of 0.025. […] Primary analyses of efficacy were performed using the mixed-effect model for repeated measures (MMRM) for 6MWD in Intent-to-treat Observed Population (ITT) that includes all available, observed data without any missing data imputation (ITT-OBS) and analysis of covariance (ANCOVA) for all other endpoints in the Intent-to-Treat-Last Observation Carried Forward (ITT-LOCF) Population. A nonparametric randomization based ANCOVA was specified as the first sensitivity analysis for 6MWD and FVC. […] For the purposes of data presentation in this document, 2-sided p-values are reported hereafter, except as otherwise noted.

[3] = test system: adult subjects with late-onset Pompe disease (LOPD); assay: Study ATB200-03 (PROPEL): serum creatine kinase (CK); type: in vivo, human; conditions: combined study population
adult subjects with LOPD [4] = assay: Study ATB200-07 (OLE): PROMIS-Fatigue; type: in vivo, human
Excerpt: (§1) Analysis populations presented in this summary are 1) the OLE-ES Population (all subjects who satisfied the eligibility requirements (based on the inclusion and exclusion criteria) and entered Study ATB200-07 and 2) the OLE-FAS Population (all subjects who entered the OLE Study ATB200-07 who had both a valid ATB200-07 baseline and at least 1 post-baseline assessment for at least 1 of the 6 main efficacy endpoints [6MWD, sitting % predicted FVC, MMT-lower extremities, PROMIS-Physical Function, PROMIS-Fatigue, and GSGC]).

adult subjects with LOPD [5] = assay: Study ATB200-07 (OLE): GSGC; type: in vivo, human
Excerpt: as §1

adult subjects with LOPD [6] = assay: Study ATB200-07 (OLE): Hex4
Protocol: The Phase III double-blind PROPEL study (NCT03729362; ATB200-03) described in Examples 9 and 10 above compared the investigational two-component therapy cipaglucosidase alfa/miglustat (cipa/mig) with alglucosidase alfa/placebo (alglu) in adults with late-onset Pompe disease (LOPD) over 52 weeks. The ongoing open-label extension (OLE) of PROPEL (NCT04138277; ATB200-07) evaluates long-term safety and efficacy of cipa/mig. Outcomes include 6 minute walk distance (6MWD), forced vital capacity (FVC), creatine kinase (CK) and hexose tetrasaccharide (Hex4) levels and safety. Data are reported as change from the PROPEL baseline to OLE week 52 (104 weeks after the PROPEL baseline).

[7] = test system: adult subjects with Pompe disease; assay: Pooled Studies ATB200-02/03/07 (Pool 2): 6MWD by exposure interval; conditions: exposure interval ≤15 months
Protocol: The pooled efficacy analyses presented within this section include the outlier (Pool 2). […] Pooled efficacy analyses excluding the outlier subject (Pool 2A) were also performed.
No long-term data for the alglucosidase alfa/placebo group are available, as all subjects switched to cipaglucosidase alfa/miglustat in Study ATB200-07.
Efficacy data from the 3 adult Pompe disease clinical studies were pooled and analyzed to further support the long-term efficacy of cipaglucosidase alfa/miglustat in adult subjects. Data from non-ambulatory subjects (Study ATB200-02 Cohort 2) were not included in the pool as there was little overlap of efficacy endpoints for this group with the various ambulatory groups, such as 6MWD and lower MMT.
The 3 adult Pompe disease clinical studies were pooled as follows: • The cipaglucosidase alfa/miglustat treatment group consists of: • All ambulatory subjects in Study ATB200-02 (Cohorts 1, 3, and 4), • All subjects randomized to the cipaglucosidase alfa/miglustat treatment group in Study ATB200-03, and • All subjects enrolled in Study ATB200-07. • The alglucosidase alfa/placebo treatment group consists of: • All subjects randomized to the ERT treatment group in Study ATB200-03.

[8] = test system: adult subjects with late-onset Pompe disease (LOPD); assay: Study ATB200-03: summary across primary, secondary and biomarker endpoints (incl. SVC, FVC supine, MIP, MEP, SNIP, MMT upper/overall, QMT, TUG); conditions: ITT excluding outlier subject
Excerpt: • overall physical wellbeing • effort of breathing • muscle strength • muscle function • ability to move around • activities of daily living • energy level • level of muscular pain • actual value of the subject's functional status (improving, stable, or declining) at Week 52, as measured by the Physician's Global Impression of Change • change from baseline to Week 52 in the following measures of pulmonary function, as follows: • sitting FVC (% predicted) • MIP (cmH2O) • MIP (% predicted) • MEP (cmH2O) • MEP (% predicted) • SNIP (cmH2O)

[9] = Week 52-LOCF, ERT-experienced Population
[10] = Week 52-LOCF, ERT-naïve Subjects excluding Subject 4005-2511
[11] = Week 52-LOCF, ITT excluding Subject 4005-2511
[12] = Study ATB200-03 baseline, OLE-ES Population excluding Subject 4005-2511
[13] = change from ATB200-03 baseline at Week 52, decrease indicates improvement, OLE-ES excluding Subject 4005-2511
[14] = change from ATB200-03 baseline at Week 104, alglucosidase alfa/placebo group switched to cipaglucosidase alfa/miglustat at Week 52, OLE-ES excluding Subject 4005-2511

With alglucosidase alfa [reference compound] the “relative effect, sensitivity analysis (RCT data only), 6MWT and FVC” value [1] was “numerically favourable versus placebo”, the “PROMIS-Physical Function Short Form 20a total score Absolute Value, Median” value ([2]; Baseline, ITT, ERT-naïve Subjects excluding Subject 4005-2511) was 67.00 and the “PROMIS-Physical Function Short Form 20a total score Absolute Value, Mean” value ([2]; Baseline, ITT, ERT-naïve Subjects excluding Subject 4005-2511, score 20 to 100, higher = less impact) was 72.71. For the same substance, the “mean (SD) change in PROMIS-Physical Function total score from baseline to Week 52” value (“mean (SD) change” for short) ([2]; ERT-experienced Population) was 1.0 (11.20), the “mean (SD) change” value ([2]; ERT-naïve excluding Subject 4005-2511) was 5.1 (7.82) and the “Change in PROMIS-Physical Function total score baseline to Week 52, LS means (SE) from ANCOVA” value ([2]; ITT-LOCF, ERT-naïve Subjects excluding Subject 4005-2511) was 6.96 (3.539). For the same substance, the “CHG to Week 52 in PROMIS-Physical Function total score, LS Mean” value ([2]; ITT-OBS excluding Subject 4005-2511 (overall)) was −0.3, the “CHG to Week 52 in PROMIS-Physical Function total score, LS Mean” value ([2]; ITT-OBS excluding Subject 4005-2511, ERT-naïve Subjects) was 5.8 and the “CHG to Week 52 in PROMIS-Physical Function total score, LS Mean” value ([2]; ITT-OBS, ERT-experienced Subjects) was −1.6. For the same substance, the “PROMIS-Physical Function Short Form 20a total score Absolute Value, Mean (SD)” value [2, 9] was 65.90 (15.790), the “PROMIS-Physical Function Short Form 20a total score Absolute Value, Median” value [2, 9] was 66.00 and the “PROMIS-Physical Function Short Form 20a total score CHG, Mean (SD)” value [2, 9] was −0.97 (11.196). The “PROMIS-Physical Function Short Form 20a total score CHG, Median” value [2, 9] was −2.00, the “PROMIS-Physical Function Short Form 20a total score Absolute Value, Mean” value [2, 10] was 77.86 and the “PROMIS-Physical Function Short Form 20a total score Absolute Value, Median” value [2, 10] was 80.00. For the same substance, the “PROMIS-Physical Function Short Form 20a total score CHG (change from baseline), Mean” value [2, 10] was 5.14, the “PROMIS-Physical Function Short Form 20a total score CHG (change from baseline), Median” value [2, 10] was 5.00 and the “PROMIS-Physical Function Short Form 20a total score Absolute Value, Mean (SD)” value [2, 11] was 68.16 (16.269). The “PROMIS-Physical Function Short Form 20a total score Absolute Value, Median” value [2, 11] was 69.00, the “PROMIS-Physical Function Short Form 20a total score CHG, Mean (SD)” value [2, 11] was 0.19 (10.819) and the “PROMIS-Physical Function Short Form 20a total score CHG, Median” value [2, 11] was −1.00. The “PROMIS-Physical Function Short Form 20a total score CHG, LS means (SE)” value ([2]; ITT-LOCF excluding Subject 4005-2511) was 0.11 (1.406), the “PROMIS-Physical Function Short Form 20a total score CHG, LS means (SE)” value ([2]; ITT-LOCF, ERT-experienced Population) was −1.25 (1.587) and the “mean (SD) change” value ([2]; overall population) was 0.2 (10.82). For the same substance, the “mean change in CK after 52 weeks” value [3] was “+15.6%”, the “PROMIS-Fatigue, mean BSL” value (adult subjects with LOPD [4]; [12]) was 21.2 and the “PROMIS-Fatigue, mean 52-wk CFB” value (adult subjects with LOPD [4]; [13]) was −1.7. The “PROMIS-Fatigue, mean 104-wk CFB” value (adult subjects with LOPD [4]; [14]) was −0.1, the “GSGC, mean BSL” value (adult subjects with LOPD [5]; [12]) was 14.3 and the “GSGC, mean 52-wk CFB” value (adult subjects with LOPD [5]; [13]) was 0.9. For the same substance, the “GSGC, mean 104-wk CFB” value (adult subjects with LOPD [5]; [14]) was 0.3, the “Hex4, mean BSL” value (adult subjects with LOPD [6]; [12]) was 7.0 and the “Hex4, mean 52-wk CFB” value (adult subjects with LOPD [6]; change from ATB200-03 baseline at Week 52, OLE-ES excluding Subject 4005-2511) was 1.6. The “Hex4, mean 104-wk CFB” value (adult subjects with LOPD [6]; [14]) was −2.7, the “6MWD Baseline, Mean” value ([7]; Pool 2, Efficacy Population including the outlier) was 350.14 meters and the “6MWD Baseline, Median” value ([7]; Pool 2, including the outlier) was 358.45 meters. For the same substance, the “6MWD change from baseline, median” value ([7]; Pool 2, including the outlier) was 3.15 meters, the “6MWD change from baseline, mean” value ([7]; last available post-baseline value − baseline, Pool 2, including the outlier) was 16.40 meters and the “parameters with statistically significant decline from baseline at Week 52” value [8] was “GSGC, FVC sitting, FVC supine, SVC sitting, and CK”. The “parameters with statistically significant improvement from baseline at Week 52” value [8] was “not observed for any parameters”.
